In US20230055237A1, “COMPOUNDS AND METHODS FOR THE TREATMENT OF CYSTIC FIBROSIS” (Flatley Discovery Lab, LLC, priority 2019, published 2023):

Target: T1, CFTR (Homo sapiens, UniProt P13569, DEL508-508)
T1 construct: Primary CF airway epithelial cells were obtained from the UNC Cystic Fibrosis Tissue Procurement and Cell Culture Core; host or cells: primary CF airway epithelial cells, differentiated at the air-liquid interface
Assay: Equivalent current assay in primary CF airway epithelial cells (NAUC, combination with 1st site corrector FDL169 or VX-809)
Format: cell-based
Conditions: 37° C., 24 h

[1] = test compound 10 μM in combination with 1st site corrector VX-809 (3 μM)
[2] = test compound 1 μM in combination with 1st site corrector VX-809 (3 μM)
[3] = test compound 3 μM in combination with 1st site corrector VX-809 (3 μM)
[4] = test compound 1 μM in combination with 1st site corrector FDL169 (3 μM)
[5] = test compound 3 μM in combination with 1st site corrector FDL169 (3 μM)
[6] = test compound 10 μM in combination with 1st site corrector FDL169 (3 μM)

T1 sequence (P13569 with tags, fused parts or gaps DEL508-508): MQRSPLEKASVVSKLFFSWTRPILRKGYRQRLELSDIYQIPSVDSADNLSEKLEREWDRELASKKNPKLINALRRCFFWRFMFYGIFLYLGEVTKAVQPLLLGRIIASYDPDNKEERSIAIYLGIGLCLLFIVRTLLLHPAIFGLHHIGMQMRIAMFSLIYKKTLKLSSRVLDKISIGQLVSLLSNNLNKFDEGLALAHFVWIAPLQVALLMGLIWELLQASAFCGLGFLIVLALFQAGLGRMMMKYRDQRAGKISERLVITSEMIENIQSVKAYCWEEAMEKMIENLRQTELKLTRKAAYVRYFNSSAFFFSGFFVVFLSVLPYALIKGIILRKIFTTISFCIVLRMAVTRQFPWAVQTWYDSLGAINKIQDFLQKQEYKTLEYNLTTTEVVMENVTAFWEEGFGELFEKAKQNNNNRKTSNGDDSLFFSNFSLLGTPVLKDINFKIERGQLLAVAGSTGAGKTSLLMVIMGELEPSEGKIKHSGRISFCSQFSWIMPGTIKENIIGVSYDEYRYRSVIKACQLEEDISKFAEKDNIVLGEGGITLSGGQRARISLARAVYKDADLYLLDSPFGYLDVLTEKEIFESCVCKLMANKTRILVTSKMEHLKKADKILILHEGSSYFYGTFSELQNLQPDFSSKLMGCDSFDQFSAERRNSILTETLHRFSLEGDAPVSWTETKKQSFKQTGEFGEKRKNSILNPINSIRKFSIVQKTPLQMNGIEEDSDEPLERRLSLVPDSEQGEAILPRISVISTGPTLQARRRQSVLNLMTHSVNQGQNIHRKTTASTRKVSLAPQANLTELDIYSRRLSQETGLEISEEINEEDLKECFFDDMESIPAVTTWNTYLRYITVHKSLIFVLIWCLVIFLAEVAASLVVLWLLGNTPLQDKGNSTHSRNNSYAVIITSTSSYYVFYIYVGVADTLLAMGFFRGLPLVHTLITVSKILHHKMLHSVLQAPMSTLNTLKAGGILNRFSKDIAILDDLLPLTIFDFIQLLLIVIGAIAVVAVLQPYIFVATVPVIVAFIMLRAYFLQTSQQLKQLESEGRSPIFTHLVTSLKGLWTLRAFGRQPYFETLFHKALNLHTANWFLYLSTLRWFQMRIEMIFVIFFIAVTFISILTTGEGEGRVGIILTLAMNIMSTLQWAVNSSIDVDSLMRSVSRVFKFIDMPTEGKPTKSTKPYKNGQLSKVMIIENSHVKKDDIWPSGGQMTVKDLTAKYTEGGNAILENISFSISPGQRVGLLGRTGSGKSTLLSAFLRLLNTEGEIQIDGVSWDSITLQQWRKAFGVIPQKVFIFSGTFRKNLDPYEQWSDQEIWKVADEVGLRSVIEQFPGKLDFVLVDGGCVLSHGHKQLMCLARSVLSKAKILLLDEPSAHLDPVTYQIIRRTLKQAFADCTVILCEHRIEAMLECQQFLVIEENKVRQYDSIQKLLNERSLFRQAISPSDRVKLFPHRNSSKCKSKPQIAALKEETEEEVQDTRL

SMILES	Nauc @ 10 μM [1]	Nauc @ 3 μM [3]	other results
O=C(Nc1ccccc1O)C1C2CC(F)(F)CN2C2(C(=O)Nc3c(Cl)cc(Cl)cc32)C1C(=O)O (stereo not drawn) [Example 78.a]	+ (NAUC “+” refers to an observed NAUC <140% of positive control)		
O=C(Nc1cc(Cl)cc(Cl)c1)C1C(C(F)(F)c2cccc(C(F)(F)F)c2)NC2(C(=O)Nc3c(Cl)cc(Cl)cc32)C1C(=O)O (stereo not drawn) [Example 70.a]	+ (NAUC “+” refers to an observed NAUC <140% of positive control)		
CN(C(=O)[C@H]1[C@H]2CC(F)(F)CN2C2(C(=O)Nc3c(Cl)cc(Cl)cc32)[C@H]1C(=O)O)c1cccc(C(F)(F)F)n1 (stereo partly drawn) [Example 292]	+++ (NAUC “+++” refers to an observed NAUC>170% of positive control)	+++ (NAUC “+++” refers to an observed NAUC>170% of positive control)	Nauc @ 1 μM [2]: ++ (NAUC “++” refers to an observed NAUC 170-140% of positive control)
CN(C(=O)[C@H]1[C@H]2CC(F)(F)CN2[C@]2(C(=O)Nc3c2ccc(Cl)c3Cl)[C@H]1C(=O)O)c1cc(Cl)cc(Cl)c1 (racemic) [Example 100, rac-(1′R,2′S,7a′R)-6,7-dichloro-1-((3,5-dichlorophenyl)(methyl)carbamoyl)-6′,6′-difluoro-2-oxo-1′,2′,5′,6′,7′,7a′-hexahydrospiro[indoline-3,3′-pyrrolizine]-2′-carboxylic acid]	+ (NAUC “+” refers to an observed NAUC <140% of positive control)	+ (NAUC “+” refers to an observed NAUC <140% of positive control)	Nauc @ 1 μM [2]: + (NAUC “+” refers to an observed NAUC <140% of positive control)
O=C(O)[C@H]1[C@@H](C(=O)N(CC2CC2)c2cccc(-c3ccccc3)c2)[C@H]2CC(F)(F)CN2[C@]12C(=O)Nc1c(Cl)cc(Cl)cc12 [Example 156]			Nauc @ 1 μM [4]: +++ (NAUC “+++” refers to an observed NAUC>170% of positive control); Nauc @ 3 μM [5]: +++ (NAUC “+++” refers to an observed NAUC>170% of positive control); Nauc @ 10 μM [6]: ++ (NAUC “++” refers to an observed NAUC 170-140% of positive control)
O=C(O)[C@H]1[C@@H](C(=O)N(c2cc(Cl)cc(Cl)c2)C2CC(O)C2)[C@H]2CC(F)(F)CN2[C@]12C(=O)Nc1c(Cl)cc(Cl)cc12 (stereo partly drawn) [Example 158]			Nauc @ 1 μM [4]: + (NAUC “+” refers to an observed NAUC <140% of positive control); Nauc @ 3 μM [5]: + (NAUC “+” refers to an observed NAUC <140% of positive control)
C[C@]1(OCc2ccccc2)C[C@@H]2[C@H](C(=O)N(CC3CC3)c3cc(Cl)cc(Cl)c3)[C@H](C(=O)O)[C@@]3(C(=O)Nc4c(Cl)cc(Cl)cc43)N2C1 [Example 93]			Nauc @ 1 μM [4]: +++ (NAUC “+++” refers to an observed NAUC>170% of positive control); Nauc @ 3 μM [5]: +++ (NAUC “+++” refers to an observed NAUC>170% of positive control); Nauc @ 10 μM [6]: ++ (NAUC “++” refers to an observed NAUC 170-140% of positive control)
O=C(Nc1cc(Cl)cc(Cl)c1)C1C(C(F)(F)c2cccc(C(F)(F)F)c2)NC2(C(=O)Nc3c(Cl)cc(Cl)cc32)C1C(=O)O (stereo not drawn) [Example 70.b]	+ (NAUC “+” refers to an observed NAUC <140% of positive control)		
O=C(O)[C@H]1[C@@H](C(=O)N(CC2CC2)c2cccc(C3(C(F)(F)F)CC3)c2)[C@H]2CC(F)(F)CN2[C@]12C(=O)Nc1c(Cl)cc(Cl)cc12 [Example 189]			Nauc @ 1 μM [4]: ++ (NAUC “++” refers to an observed NAUC 170-140% of positive control); Nauc @ 3 μM [5]: + (NAUC “+” refers to an observed NAUC <140% of positive control)
O=C(Nc1cc(Cl)cc(Cl)c1)C1CN(C(=O)CCc2ccccc2)C2(C(=O)Nc3c(Cl)cc(Cl)cc32)C1C(=O)O (stereo not drawn) [Example 24]	+ (NAUC “+” refers to an observed NAUC <140% of positive control)	+++ (NAUC “+++” refers to an observed NAUC>170% of positive control)	
O=C(Nc1cc(Cl)cc(Cl)c1)C1C2C[C@@](O)(C(F)(F)F)CN2C2(C(=O)Nc3c(Cl)cc(Cl)cc32)C1C(=O)O (stereo partly drawn) [Example 58]	+++ (NAUC “+++” refers to an observed NAUC>170% of positive control)	+ (NAUC “+” refers to an observed NAUC <140% of positive control)	
CC(C)(C)CCN(C(=O)[C@H]1[C@H]2CC(F)(F)CN2[C@]2(C(=O)Nc3c(Cl)cc(Cl)cc32)[C@H]1C(=O)O)c1cc(Cl)cc(Cl)c1 [Example 182]			Nauc @ 1 μM [4]: +++ (NAUC “+++” refers to an observed NAUC>170% of positive control); Nauc @ 3 μM [5]: ++ (NAUC “++” refers to an observed NAUC 170-140% of positive control)
O=C(Nc1cc(Cl)cc(Cl)c1)C1C(C(F)(F)c2ccccn2)NC2(C(=O)Nc3c(Cl)cc(Cl)cc32)C1C(=O)O (stereo not drawn) [Example 72.a]	+ (NAUC “+” refers to an observed NAUC <140% of positive control)		
O=C(Nc1cc(Cl)cc(Cl)c1)C1C(C(F)(F)c2cccc(Cl)c2)NC2(C(=O)Nc3c(Cl)cc(Cl)cc32)C1C(=O)O (stereo not drawn) [Example 68.a]	+ (NAUC “+” refers to an observed NAUC <140% of positive control)		
O=C(Nc1cc(Cl)cc(Cl)c1)C1C(C(F)(F)c2cccc(Cl)c2)NC2(C(=O)Nc3c(Cl)cc(Cl)cc32)C1C(=O)O (stereo not drawn) [Example 68.c]	+++ (NAUC “+++” refers to an observed NAUC>170% of positive control)	+++ (NAUC “+++” refers to an observed NAUC>170% of positive control)	Nauc @ 1 μM [2]: + (NAUC “+” refers to an observed NAUC <140% of positive control)
O=C(Nc1cc(Cl)cc(Cl)c1)C1C2N(CCC2(F)F)C2(C(=O)Nc3c(Cl)cc(Cl)cc32)C1C(=O)O (stereo not drawn) [Example 59]	++ (NAUC “++” refers to an observed NAUC 170-140% of positive control)	+ (NAUC “+” refers to an observed NAUC <140% of positive control)	
CN(O)C(=O)C1C(C(=O)N(C)c2cc(Cl)cc(Cl)c2)C2CC(F)(F)CN2C12C(=O)Nc1c(Cl)cc(Cl)cc12 (single isomer, unassigned) [Example 229b, 5,7-dichloro-N1′-(3,5-dichlorophenyl)-6′,6′-difluoro-N2′-hydroxy-N1′,N2′-dimethyl-2-oxo-1′,2′,5′,6′,7′,7a′-hexahydrospiro[indoline-3,3′-pyrrolizine]-1′,2′-dicarboxamide]	+ (NAUC “+” refers to an observed NAUC <140% of positive control)		
O=C(Nc1cc(C(F)(F)F)ccn1)C1C2CC(F)(F)CN2C2(C(=O)Nc3c(Cl)cc(Cl)cc32)C1C(=O)O (stereo not drawn) [Example 11]	++ (NAUC “++” refers to an observed NAUC 170-140% of positive control)	+++ (NAUC “+++” refers to an observed NAUC>170% of positive control)	
O=C(Nc1cccc2c1OCCO2)[C@H]1[C@H]2CC(F)(F)CN2[C@]2(C(=O)Nc3c(Cl)cc(Cl)cc32)[C@H]1C(=O)O [Example 129]		+ (NAUC “+” refers to an observed NAUC <140% of positive control)	Nauc @ 1 μM [2]: + (NAUC “+” refers to an observed NAUC <140% of positive control)
O=C(NCCc1ccccc1Cl)C1C2CC(F)(F)CN2C2(C(=O)Nc3c(Cl)cc(Cl)cc32)C1C(=O)O (stereo not drawn) [Example 50]	+++ (NAUC “+++” refers to an observed NAUC>170% of positive control)	++ (NAUC “++” refers to an observed NAUC 170-140% of positive control)	
CC(C)(C)CN(C(=O)[C@H]1[C@@H](C(=O)O)C2(C(=O)Nc3c(Cl)cc(Cl)cc32)N2CC(C)(C)C[C@@H]12)c1cc(Cl)cc(Cl)c1 (single isomer, unassigned) [Example 274.6b, (1′S,2′R,7a′S)-5,7-dichloro-1′-((3,5-dichlorophenyl)(neopentyl)carbamoyl)-6′,6′-dimethyl-2-oxo-1′,2′,5′,6′,7′,7a′-hexahydrospiro[indoline-3,3′-pyrrolizine]-2′-carboxylic acid]			Nauc @ 1 μM [4]: +++ (NAUC “+++” refers to an observed NAUC>170% of positive control); Nauc @ 3 μM [5]: ++ (NAUC “++” refers to an observed NAUC 170-140% of positive control); Nauc @ 10 μM [6]: + (NAUC “+” refers to an observed NAUC <140% of positive control)
O=C(Nc1ccc2scnc2c1)[C@H]1[C@H]2CC(F)(F)CN2[C@]2(C(=O)Nc3c(Cl)cc(Cl)cc32)[C@H]1C(=O)O [Example 128]		+ (NAUC “+” refers to an observed NAUC <140% of positive control)	Nauc @ 1 μM [2]: + (NAUC “+” refers to an observed NAUC <140% of positive control)
CN(C(=O)[C@H]1[C@H]2CC(F)(F)CN2[C@]2(C(=O)Nc3c(Cl)cc(Cl)cc32)[C@H]1C(=O)NS(=O)(=O)c1ccccc1)c1cc(Cl)cc(Cl)c1 [Example 261, (1′R,2′S,3R,7a′R)-5,7-dichloro-N1′-(3,5-dichlorophenyl)-6′,6′-difluoro-N1′-methyl-2-oxo-N2′-(phenylsulfonyl)-1′,2′,5′,6′,7′,7a′-hexahydrospiro[indoline-3,3′-pyrrolizine]-1,2′-dicarboxamide]	+ (NAUC “+” refers to an observed NAUC <140% of positive control)		
O=C(Nc1cc(Cl)cc(Cl)c1)C1CN(C(=O)NCc2ccccc2)C2(C(=O)Nc3c(Cl)cc(Cl)cc32)C1C(=O)O (stereo not drawn) [Example 31]	+++ (NAUC “+++” refers to an observed NAUC>170% of positive control)	+ (NAUC “+” refers to an observed NAUC <140% of positive control)	
CC(C)(C)c1cccc(CCNC(=O)C2C3CCCN3C3(C(=O)Nc4c(Cl)cc(Cl)cc43)C2C(=O)O)c1 (stereo not drawn) [Example 53]	+++ (NAUC “+++” refers to an observed NAUC>170% of positive control)	+++ (NAUC “+++” refers to an observed NAUC>170% of positive control)	
O=C(O)[C@H]1[C@@H](C(=O)N(CC2CCCC2)c2cc(Cl)cc(Cl)c2)[C@H]2CCCN2C12C(=O)Nc1c(Cl)cc(Cl)cc12 (single isomer, unassigned) [Example 84b]			Nauc @ 1 μM [4]: +++ (NAUC “+++” refers to an observed NAUC>170% of positive control); Nauc @ 3 μM [5]: + (NAUC “+” refers to an observed NAUC <140% of positive control)
